In brackets after ≈: the same amount, converted by molar mass. Blank lines part the entries; values can stand above or below the compound they belong to. Activity calls are given as the source filed them. The calls are words filed in the database; no cut-off is given here.
Assays:
[1] = Inhibition of Wnt/beta-catenin transcriptional activity in human HT-29 cells assessed as depletion of beta-catenin level by TCF luciferase promoter reporter assay; assay type: cell-based; settings: Homo sapiens, HT-29
HT-29 = test: Growth inhibition of human HT-29 cells after 72 hrs by APH assay; assay type: functional, cell-based; settings: HT-29, 72 h
[2] = Inhibition of Wnt/beta-catenin (unknown origin); design: species or system Homo sapiens
[3] = target: T1, Thyroid hormone receptor (Homo sapiens) (UniProt P10827+P10828); test: Inhibition of thyroid hormone receptor in human STF cells at 1 uM after 24 hrs by TCF luciferase promoter reporter assay; assay type: cell-based
[4] = target: T2, Retinoid X receptor (Homo sapiens) (UniProt P28702+P48443+P19793); test: Inhibition of RXR in human STF cells at 1 uM after 24 hrs by TCF luciferase promoter reporter assay; assay type: cell-based
T2 sequence (P19793 whole entry, looked up): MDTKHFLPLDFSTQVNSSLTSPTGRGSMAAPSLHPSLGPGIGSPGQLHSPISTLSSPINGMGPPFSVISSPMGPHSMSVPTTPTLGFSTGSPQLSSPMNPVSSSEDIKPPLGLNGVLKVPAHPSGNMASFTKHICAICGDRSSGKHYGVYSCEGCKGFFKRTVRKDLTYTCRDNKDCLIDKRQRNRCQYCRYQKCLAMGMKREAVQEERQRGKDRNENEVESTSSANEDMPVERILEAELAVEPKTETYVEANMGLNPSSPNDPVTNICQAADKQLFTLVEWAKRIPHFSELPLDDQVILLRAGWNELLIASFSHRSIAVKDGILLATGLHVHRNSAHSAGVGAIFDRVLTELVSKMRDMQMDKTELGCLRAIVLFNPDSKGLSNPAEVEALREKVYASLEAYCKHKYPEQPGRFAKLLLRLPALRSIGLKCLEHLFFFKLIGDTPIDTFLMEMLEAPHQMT
T2 sequence (P28702 whole entry, looked up): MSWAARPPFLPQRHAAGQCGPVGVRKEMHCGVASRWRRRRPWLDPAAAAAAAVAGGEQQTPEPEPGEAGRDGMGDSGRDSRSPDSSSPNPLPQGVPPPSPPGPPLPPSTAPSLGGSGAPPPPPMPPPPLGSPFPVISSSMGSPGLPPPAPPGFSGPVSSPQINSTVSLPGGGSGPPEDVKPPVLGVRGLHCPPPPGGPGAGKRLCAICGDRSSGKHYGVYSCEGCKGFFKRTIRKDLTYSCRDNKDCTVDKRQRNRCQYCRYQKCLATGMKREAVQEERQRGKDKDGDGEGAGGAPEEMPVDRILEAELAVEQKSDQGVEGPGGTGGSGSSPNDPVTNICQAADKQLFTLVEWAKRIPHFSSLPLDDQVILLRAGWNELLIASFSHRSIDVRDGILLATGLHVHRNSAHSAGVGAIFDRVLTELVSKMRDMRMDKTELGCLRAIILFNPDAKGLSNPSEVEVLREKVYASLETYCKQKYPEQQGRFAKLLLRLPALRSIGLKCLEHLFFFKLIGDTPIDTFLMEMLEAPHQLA
T2 sequence (P48443 whole entry, looked up): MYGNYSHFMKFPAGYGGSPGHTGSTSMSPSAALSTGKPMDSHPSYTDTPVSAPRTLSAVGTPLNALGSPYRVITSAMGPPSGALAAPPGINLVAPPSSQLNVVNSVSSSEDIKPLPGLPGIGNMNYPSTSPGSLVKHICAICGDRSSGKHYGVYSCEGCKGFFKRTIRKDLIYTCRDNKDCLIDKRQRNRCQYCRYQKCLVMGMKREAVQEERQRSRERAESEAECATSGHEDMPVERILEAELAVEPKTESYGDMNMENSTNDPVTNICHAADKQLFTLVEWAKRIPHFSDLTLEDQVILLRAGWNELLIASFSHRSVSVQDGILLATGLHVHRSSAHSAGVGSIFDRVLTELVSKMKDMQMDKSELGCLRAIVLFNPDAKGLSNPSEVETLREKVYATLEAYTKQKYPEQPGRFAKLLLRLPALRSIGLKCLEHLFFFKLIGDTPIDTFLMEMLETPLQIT

[5] = Cytotoxicity against human H296R cell aggregates grown on matrigel incubated for 72 hrs by MTS assay; assay type: functional, cell-based
[6] = Terminal half life in mouse plasma at 10 mg/kg, iv; assay type: ADME, organism-based; settings: read-out: beta t1/2 (converted)
[7] = Cytotoxicity against human ovarian cancer cell aggregates grown on matrigel incubated for 72 hrs by MTS assay; assay type: functional, cell-based; settings: Cancer cell lines
STF [8] = test: Inhibition of Wnt/beta-catenin in human STF cells assessed as effect on Wnt-3a-CM-induced TopFlash activity incubated for 12 hrs with Wnt-3a-conditioned medium followed by 1 uM compound dosing; assay type: cell-based
[9] = target: T3, Retinoic acid receptor (Homo sapiens) (UniProt P13631+P10826+P10276); test: Inhibition of RAR in human STF3A cells at 1 uM after 24 hrs by TCF luciferase promoter reporter assay; assay type: cell-based
T3 sequence (P10276 whole entry, looked up): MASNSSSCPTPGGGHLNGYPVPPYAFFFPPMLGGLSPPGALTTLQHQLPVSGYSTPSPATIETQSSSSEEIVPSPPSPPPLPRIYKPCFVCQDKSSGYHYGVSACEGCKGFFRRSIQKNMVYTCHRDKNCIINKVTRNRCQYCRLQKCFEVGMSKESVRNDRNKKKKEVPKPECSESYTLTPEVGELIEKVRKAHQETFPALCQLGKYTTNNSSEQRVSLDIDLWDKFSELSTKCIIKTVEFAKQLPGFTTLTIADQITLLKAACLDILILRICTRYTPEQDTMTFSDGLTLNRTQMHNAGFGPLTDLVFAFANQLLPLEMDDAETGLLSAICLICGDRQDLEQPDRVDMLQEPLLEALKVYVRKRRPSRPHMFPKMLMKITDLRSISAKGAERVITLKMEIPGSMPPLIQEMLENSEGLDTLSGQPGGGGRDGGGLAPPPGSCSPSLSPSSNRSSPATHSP
T3 sequence (P10826 whole entry, looked up): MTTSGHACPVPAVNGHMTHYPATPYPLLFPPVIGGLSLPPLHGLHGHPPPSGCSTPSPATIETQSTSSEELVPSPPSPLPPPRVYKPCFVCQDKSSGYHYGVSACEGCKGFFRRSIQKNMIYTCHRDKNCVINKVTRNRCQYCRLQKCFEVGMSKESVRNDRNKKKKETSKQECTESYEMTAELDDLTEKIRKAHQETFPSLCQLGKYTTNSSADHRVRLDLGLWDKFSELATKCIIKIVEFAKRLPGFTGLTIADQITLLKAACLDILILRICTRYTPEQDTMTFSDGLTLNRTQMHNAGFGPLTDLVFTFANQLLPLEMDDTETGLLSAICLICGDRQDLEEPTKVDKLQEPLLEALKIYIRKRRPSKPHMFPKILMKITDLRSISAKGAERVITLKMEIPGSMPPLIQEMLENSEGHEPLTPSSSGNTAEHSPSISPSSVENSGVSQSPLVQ
T3 sequence (P13631 whole entry, looked up): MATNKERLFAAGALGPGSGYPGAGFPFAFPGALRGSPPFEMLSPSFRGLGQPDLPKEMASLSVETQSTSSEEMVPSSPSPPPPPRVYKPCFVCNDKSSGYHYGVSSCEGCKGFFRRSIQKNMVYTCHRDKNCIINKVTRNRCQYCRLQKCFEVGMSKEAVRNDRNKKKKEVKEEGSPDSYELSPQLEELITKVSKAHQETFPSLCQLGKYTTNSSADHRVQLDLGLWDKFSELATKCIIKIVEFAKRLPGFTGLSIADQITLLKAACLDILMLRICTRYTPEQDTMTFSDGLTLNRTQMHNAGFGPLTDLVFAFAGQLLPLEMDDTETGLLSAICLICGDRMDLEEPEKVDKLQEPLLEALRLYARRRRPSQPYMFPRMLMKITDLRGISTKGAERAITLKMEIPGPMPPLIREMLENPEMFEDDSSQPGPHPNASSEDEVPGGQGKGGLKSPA

STF3A [10] = test: Inhibition of NFkappaB in human STF3A cells at 1 uM after 24 hrs by TCF luciferase promoter reporter assay; assay type: cell-based
HEK293 = test: Induction of apoptosis in HEK293 cells transfected with Wnt3A at 10 uM by propidium iodide staining based flow cytometry; assay type: functional, cell-based; settings: Homo sapiens
H296R = test: Cytotoxicity against human H296R cell aggregates grown on matrigel incubated for 5 to 8 days by MTS assay; assay type: functional, cell-based
[11] = Growth inhibition of human H296R cells after 72 hrs by APH assay; assay type: functional, cell-based
STF [12] = test: Inhibition of Wnt/beta-catenin in human STF cells at 1 uM after 24 hrs by TCF luciferase promoter reporter assay; assay type: cell-based
STF [13] = test: Inhibition of NFkappaB in human STF cells at 1 uM after 24 hrs by TCF luciferase promoter reporter assay; assay type: cell-based
SW480 [14] = test: Growth inhibition of human SW480 cells after 72 hrs by APH assay; assay type: functional, cell-based; settings: SW480, 72 h
[15] = Plasma concentration in mouse at 10 mg/kg, iv after 12 hrs; assay type: ADME, organism-based
[16] = Cytotoxicity against human prostate cancer cells after 72 hrs by MTS assay; assay type: functional, cell-based; settings: Cancer cell lines
Mus musculus = test: Toxicity in human SW480 cells xenografted nu/nu mouse assessed as change in body weight at 35 mg/kg, po administered every 5 days per week for 3 weeks; assay type: organism-based; settings: in vivo
A549 = test: Growth inhibition of human A549 cells after 72 hrs by APH assay; assay type: functional, cell-based; settings: A549, 72 h
[17] = target: Signal transducer and activator of transcription 3 (Homo sapiens) (UniProt P40763); test: Inhibition of STAT3 in human STF cells at 1 uM after 24 hrs by TCF luciferase promoter reporter assay; assay type: cell-based
Sequence of Signal transducer and activator of transcription 3 (Homo sapiens) (P40763 whole entry): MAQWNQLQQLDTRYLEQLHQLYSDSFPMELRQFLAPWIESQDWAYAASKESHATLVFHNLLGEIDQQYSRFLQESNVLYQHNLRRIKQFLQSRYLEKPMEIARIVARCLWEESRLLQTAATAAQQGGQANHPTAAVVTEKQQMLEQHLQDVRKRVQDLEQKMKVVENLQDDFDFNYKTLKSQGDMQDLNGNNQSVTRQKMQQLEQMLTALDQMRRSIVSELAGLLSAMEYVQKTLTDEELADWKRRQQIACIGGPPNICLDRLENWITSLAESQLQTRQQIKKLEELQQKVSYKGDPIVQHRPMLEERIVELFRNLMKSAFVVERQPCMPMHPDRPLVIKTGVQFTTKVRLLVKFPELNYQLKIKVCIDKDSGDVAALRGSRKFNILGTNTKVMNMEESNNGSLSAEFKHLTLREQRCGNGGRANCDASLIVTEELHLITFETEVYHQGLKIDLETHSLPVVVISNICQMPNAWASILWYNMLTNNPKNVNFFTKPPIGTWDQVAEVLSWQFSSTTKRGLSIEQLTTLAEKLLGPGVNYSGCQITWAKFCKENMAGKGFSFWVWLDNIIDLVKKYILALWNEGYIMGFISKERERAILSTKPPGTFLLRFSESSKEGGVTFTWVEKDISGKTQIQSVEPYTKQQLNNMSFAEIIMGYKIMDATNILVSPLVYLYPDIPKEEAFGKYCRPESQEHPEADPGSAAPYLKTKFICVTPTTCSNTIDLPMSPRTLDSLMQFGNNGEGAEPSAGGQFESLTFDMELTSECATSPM

STF3A [18] = test: Inhibition of Wnt/beta-catenin in human STF3A cells at 1 uM after 24 hrs by TCF luciferase promoter reporter assay; assay type: cell-based
HCT-116 = test: Growth inhibition of human HCT116 cells after 72 hrs by APH assay; assay type: functional, cell-based; settings: HCT-116, 72 h
HCT-15 [19] = test: Growth inhibition of human HCT15 cells after 72 hrs by APH assay; assay type: functional, cell-based; settings: HCT-15, 72 h
[20] = Solubility of the compound; assay type: physicochemical
[21] = target: Signal transducer and activator of transcription 3 (Homo sapiens) (UniProt P40763); test: Inhibition of STAT3 in human STF3A cells at 1 uM after 24 hrs by TCF luciferase promoter reporter assay; assay type: cell-based
Cancer cell lines [22] = test: Induction of cell cycle arrest in human colon cancer cells assessed as accumulation at G1 phase incubated for 72 hrs by flow cytometry; assay type: functional, cell-based
SW480 [23] = test: Antitumor activity against human SW480 cells xenografted in nu/nu mouse assessed as tumor growth inhibition at 35 mg/kg, po administered every 5 days per week for 3 weeks; assay type: functional, organism-based
Cancer cell lines [24] = test: Induction of apoptosis in human colon cancer cells incubated for 48 to 72 hrs by annexin V-FITC and propidium iodide staining based flow cytometry; assay type: functional
[25] = Cytotoxicity against human breast cancer cell aggregates grown on matrigel incubated for 72 hrs by MTS assay; assay type: functional, cell-based; settings: Cancer cell lines
[26] = Cytotoxicity against human colon cancer cell aggregates grown on matrigel incubated for 72 hrs by MTS assay; assay type: functional, cell-based; settings: Cancer cell lines
[27] = target: Voltage-gated inwardly rectifying potassium channel KCNH2 (Homo sapiens, UniProt Q12809); test: Inhibition of human ERG
Sequence of Voltage-gated inwardly rectifying potassium channel KCNH2 (Q12809 whole entry): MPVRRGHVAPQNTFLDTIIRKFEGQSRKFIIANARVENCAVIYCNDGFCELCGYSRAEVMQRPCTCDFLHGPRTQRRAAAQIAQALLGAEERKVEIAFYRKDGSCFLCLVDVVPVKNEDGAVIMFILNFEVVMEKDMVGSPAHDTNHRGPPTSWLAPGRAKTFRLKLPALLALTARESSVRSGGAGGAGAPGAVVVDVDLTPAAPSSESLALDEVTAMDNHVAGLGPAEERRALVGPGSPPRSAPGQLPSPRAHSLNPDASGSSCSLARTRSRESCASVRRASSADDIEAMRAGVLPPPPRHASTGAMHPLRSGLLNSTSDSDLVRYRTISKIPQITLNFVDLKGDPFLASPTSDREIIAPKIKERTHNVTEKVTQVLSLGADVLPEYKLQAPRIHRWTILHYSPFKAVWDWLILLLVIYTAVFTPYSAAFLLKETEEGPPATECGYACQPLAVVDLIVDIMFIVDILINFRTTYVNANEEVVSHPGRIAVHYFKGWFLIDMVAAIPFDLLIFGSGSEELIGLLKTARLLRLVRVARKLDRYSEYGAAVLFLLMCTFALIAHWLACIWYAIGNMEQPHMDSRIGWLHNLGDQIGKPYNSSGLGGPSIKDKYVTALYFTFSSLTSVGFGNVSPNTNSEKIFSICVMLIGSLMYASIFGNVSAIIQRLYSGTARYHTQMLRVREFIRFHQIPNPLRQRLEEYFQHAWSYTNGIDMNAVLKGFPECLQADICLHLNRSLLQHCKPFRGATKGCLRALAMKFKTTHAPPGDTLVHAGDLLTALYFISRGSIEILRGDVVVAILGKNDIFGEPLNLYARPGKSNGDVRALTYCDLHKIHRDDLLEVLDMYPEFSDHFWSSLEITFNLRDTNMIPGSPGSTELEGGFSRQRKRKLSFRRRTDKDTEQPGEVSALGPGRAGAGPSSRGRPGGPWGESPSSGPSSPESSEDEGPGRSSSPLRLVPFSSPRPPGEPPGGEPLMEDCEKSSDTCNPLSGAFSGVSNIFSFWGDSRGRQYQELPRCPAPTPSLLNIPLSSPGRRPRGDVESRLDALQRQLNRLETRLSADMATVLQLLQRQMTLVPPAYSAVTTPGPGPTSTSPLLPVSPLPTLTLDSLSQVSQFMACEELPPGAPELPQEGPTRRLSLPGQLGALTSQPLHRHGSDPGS

[28] = target: T1, Thyroid hormone receptor (Homo sapiens); test: Inhibition of thyroid hormone receptor in human STF3A cells at 1 uM after 24 hrs by TCF luciferase promoter reporter assay; assay type: cell-based
Homo sapiens = organism: Homo sapiens; test: Activity at p-glycoprotein (unknown origin)
Plasma = test: Plasma concentration in mouse at 10 mg/kg, iv; assay type: ADME, organism-based; settings: in vivo
Cytochrome P450 2C9 = Cytochrome P450 2C9 (Homo sapiens, UniProt P11712); test: Inhibition of CYP2C9 (unknown origin); assay type: ADME
MCF7 = test: Growth inhibition of human MCF7 cells after 72 hrs by APH assay; assay type: functional, cell-based; settings: MCF7, 72 h
[29] = Cytotoxicity against human HCT15 cell aggregates grown on matrigel incubated for 72 hrs by MTS assay; assay type: functional, cell-based; settings: HCT-15, 72 h
[30] = target: T2, Retinoid X receptor (Homo sapiens); test: Inhibition of RXR in human STF3A cells at 1 uM after 24 hrs by TCF luciferase promoter reporter assay; assay type: cell-based
[31] = target: T3, Retinoic acid receptor (Homo sapiens); test: Inhibition of RAR in human STF cells at 1 uM after 24 hrs by TCF luciferase promoter reporter assay; assay type: cell-based
[32] = Lipophilicity, log D of the compound; assay type: physicochemical; settings: octanol/water
HCT-15 [33] = test: Cytotoxicity against human HCT15 cell aggregates grown on matrigel incubated for 5 to 8 days by MTS assay; assay type: functional, cell-based
[34] = Protein binding in plasma (unknown origin); assay type: ADME, cell-free; settings: read-out: PPB (converted)

IC50 [1]: 300 nM | GI50 (HT-29): 190 nM
SMILES: CC(C)(C)C1CCN(S(=O)(=O)c2ccc3c(c2)C(=NO)c2cc(S(=O)(=O)N4CCC(C(C)(C)C)CC4)ccc2C3=NO)CC1

IC50 [1]: 1800 nM | GI50 (HT-29): 140 nM
SMILES: O=S(=O)(c1ccc2c(c1)C(=NO)c1cc(S(=O)(=O)N3CCCCCC3)ccc1C2=NO)N1CCCCCC1

IC50 [1]: 300 nM | GI50 (HT-29): 30 nM
SMILES: O=S(=O)(c1ccc2c(c1)C(=NO)c1cc(S(=O)(=O)N3CCCCCCC3)ccc1C2=NO)N1CCCCCCC1

IC50 [1]: 160 nM | GI50 (HT-29): 20 nM
SMILES: O=S(=O)(c1ccc2c(c1)C(=NO)c1cc(S(=O)(=O)N3CCCCCCCC3)ccc1C2=NO)N1CCCCCCCC1

GI50 (HT-29): 80 nM
SMILES: CC1(C)CCCN(S(=O)(=O)c2ccc3c(c2)C(=NO)c2cc(S(=O)(=O)N4CCCC(C)(C)C4)ccc2C3=NO)C1

IC50 [1]: 5000 nM | GI50 (HT-29): 470 nM
SMILES: O=S(=O)(c1ccc2c(c1)C(=NO)c1cc(S(=O)(=O)N3CCCCCCCCCCC3)ccc1C2=NO)N1CCCCCCCCCCC1

GI50 (HT-29): 60 nM
SMILES: CCCC1CCN(S(=O)(=O)c2ccc3c(c2)C(=NO)c2cc(S(=O)(=O)N4CCC(CCC)CC4)ccc2C3=NO)CC1

IC50 [1]: 300 nM | GI50 (HT-29): 90 nM
SMILES: CC(C)(C)C1CCN(S(=O)(=O)c2ccc3c(c2)/C(=N\O)c2ccc(S(=O)(=O)N4CCC(C(C)(C)C)CC4)cc2/C3=N/O)CC1

GI50 (HT-29): > 100000 nM
SMILES: O=C1c2ccc(S(=O)(=O)N3CCCCCCC3)cc2C(=O)c2cc(S(=O)(=O)N3CCCCCCC3)ccc21

GI50 (HT-29): 180 nM
SMILES: O=S(=O)(c1ccc2c(c1)/C(=N\O)c1ccc(S(=O)(=O)N3CC4C5CCC(C5)C4C3)cc1/C2=N/O)N1CC2C3CCC(C3)C2C1 (centres undefined)

GI50 (HT-29): 80 nM
SMILES: O=S(=O)(NC12CC3CC(CC(C3)C1)C2)c1ccc2c(c1)/C(=N\O)c1ccc(S(=O)(=O)NC34CC5CC(CC(C5)C3)C4)cc1/C2=N/O

GI50 (HT-29): 3900 nM
SMILES: O=S(=O)(c1ccc2c(c1)C(=NO)c1cc(S(=O)(=O)N3CCCCC3)ccc1C2=NO)N1CCCCC1

Ki [2]: 29000 nM
SMILES: CCCCC(O)c1[nH]c2cc(C)c(C(=O)O)cc2c1CCc1ccccc1 (centres undefined)

IC50 [2]: 687000 nM
SMILES: CCc1cccc2c3c([nH]c12)[C@@](CC)(CC(=O)O)OCC3 [SDX-101]

inhibition [3]: inactive | inhibition [4]: inactive | IC50 [2]: < 10 nM | half-life [6]: 4 h | inhibition [9]: inactive | IC50 (SW480 [14]): 23.3 nM | concentration at 12 h [15]: 1 µM | IC50 (A549): 51.7 nM | inhibition [17]: inactive | IC50 (HCT-116): 20.2 nM | IC50 (HCT-15 [19]): 30.6 nM | solubility [20]: 1 µg/mL (≈ 1.7 µM) | inhibition [21]: inactive | inhibition [28]: inactive | IC50 [1]: 630 nM | Activity (Homo sapiens): inactive | concentration (Plasma): 10 µM | GI50 (HT-29): 90 nM | IC50 (Cytochrome P450 2C9): 5620 nM | IC50 (MCF7): 80.8 nM | inhibition [30]: inactive | inhibition [31]: inactive | logD [32]: 3.3 | fraction unbound [34]: 0.002
SMILES: C[C@@H]1C[C@H](C)CN(S(=O)(=O)c2ccc3c(c2)/C(=N\O)c2cc(S(=O)(=O)N4C[C@H](C)C[C@H](C)C4)ccc2/C3=N/O)C1 [TEGAVIVINT]
IC50 [5]: 34.2 nM | IC50 [7]: 530 nM | Activity (STF [8]): Active | inhibition (STF3A [10]): Active | Activity (HEK293): Active | growth inhibition (GI) (H296R): Active | IC50 [11]: 14.2 nM | inhibition (STF [12]): Active | inhibition (STF [13]): Active | IC50 [16]: 20.8 nM | Activity (Mus musculus): Non-toxic | inhibition (STF3A [18]): Active | Activity (Cancer cell lines [22]): Dose-dependent effect | TGI (SW480 [23]): Active | Activity (Cancer cell lines [24]): Dose-dependent effect | IC50 [25]: 20 nM | IC50 [26]: 29.9 nM | inhibition (INH) [27]: Not Active | IC50 [29]: 38.1 nM | growth inhibition (GI) (HCT-15 [33]): Active

From ChEMBL document CHEMBL3600343, “Design, Synthesis, and Biological Evaluation of a Series of Anthracene-9,10-dione Dioxime β-Catenin Pathway Inhibitors” (J Med Chem, 2015)
